We go through 13 compounds from PubChem BioAssay AID328 (DTP/NCI, 2004).

This assay relates to BDF1 mice, P388 leukemia ip, median survival T/C. Description: NCI In Vivo Anticancer Drug Screen. Data for tumor model P388 Leukemia (intraperitoneal) in B6D2F1 (BDF1) mice. The settings on record: endpoint: median survival time, higher = longer survival. An outline of the steps: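 Each value expresses how treatment altered survival: treated-mouse outcome over vehicle-mouse outcome, both groups bearing the transplanted tumour.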

[1] abbreviates: dose: 6.25 mg/kg/injection, schedule: Q01DX009 (ip), vehicle: saline with Tween-80.
[2] abbreviates: dose: 12.5 mg/kg/injection, schedule: Q01DX009 (ip), vehicle: saline with Tween-80.
[3] abbreviates: dose: 25.0 mg/kg/injection, schedule: Q01DX009 (ip), vehicle: saline with Tween-80.
Setting [4] is: dose: 50.0 mg/kg/injection, schedule: Q01DX009 (ip), vehicle: saline with Tween-80.
Setting [5] is: dose: 100.0 mg/kg/injection, schedule: Q01DX009 (ip), vehicle: saline with Tween-80.

Structures are written as SMILES. Where “and” joins values, the source holds several entries; their conditions need not be identical. Identical values can stand only once. Inconclusive results and toxic doses are left out. Starred links: 1 amine or outer side, 2 acyl side, 3 side chain; linkers in the order of their positions; H or OH if unused. Positions of bridges follow the written chain, without caps; N, C: chain ends. Non-standard residues stand in square brackets, D forms with d. Residues, ends and D or L forms follow the SMILES beside them. Chains are numbered I, II in the order given. Actinocin(1to9) = Cc1c2oc3c(C)ccc(C(=O)[*:2])c3nc-2c(C(=O)[*:1])c(N)c1=O; NMeV = CN[CH](C(=O)O)C(C)C; Sar = CNCC(=O)O

On to `NC(N)=NO`, for which the T/C is, setting by setting: (dose: 9.37 mg/kg/injection, schedule: Q01DX009 (ip), vehicle: saline) 91 % of control; (dose: 9.38 mg/kg/injection, schedule: Q01DX009 (ip), vehicle: saline) 90 % of control; (dose: 18.75 mg/kg/injection, schedule: Q01DX009 (ip), vehicle: saline) 100 % of control and 103 % of control; (dose: 37.5 mg/kg/injection, schedule: Q01DX009 (ip), vehicle: saline) 112 % of control and 115 % of control; (dose: 200.0 mg/kg/injection, schedule: Q01DX009 (ip), vehicle: saline) 166 % of control and 168 % of control; (dose: 300.0 mg/kg/injection, schedule: Q01DX009 (ip), vehicle: saline) 158 % of control and 163 % of control. Besides, the T/C (dose: 400.0 mg/kg/injection, schedule: Q01DX009 (ip), vehicle: saline) is 195 % of control and 198 % of control.
As for `C[n+]1ccc2ccccc2c1CCCc1nccc2ccccc12`, the T/C is 100 % of control under setting [1], 120 % of control under setting [2] and 116 % of control under setting [3].
As to `O=C(O)C1CCC2CCCCC2[N-]1.O=C(O)C1CCC2CCCCC2[N-]1.[Cu+2]` (stereo unspecified), the T/C (dose: 6.25 mg/kg/injection, schedule: Q04DX003 (ip), vehicle: saline) was 100 % of control; the T/C (dose: 12.5 mg/kg/injection, schedule: Q04DX003 (ip), vehicle: saline) is 90 % of control; the T/C (dose: 25.0 mg/kg/injection, schedule: Q04DX003 (ip), vehicle: saline) was 100 % of control.
Regarding `OC1CC[N-]CC1.OC1CC[N-]CC1.[Cl][Pt+2]([Cl])([Cl])[Cl]`, the T/C (dose: 25.0 mg/kg/injection, schedule: Q04DX003 (ip), vehicle: saline with Tween-80) is 109 % of control and the T/C (dose: 50.0 mg/kg/injection, schedule: Q04DX003 (ip), vehicle: saline with Tween-80) is 102 % of control.
Regarding `CC(=O)N1N=C(N)SC1c1ccc(Cl)c(Cl)c1` (stereo unspecified), the T/C was 113 % of control under setting [4] and 113 % of control under setting [5].
As for `Clc1cccc(NC2=NCCN=C(Nc3cccc(Cl)c3)SS2)c1`, the T/C under setting [4] is 111 % of control; the T/C under setting [5] was 102 % of control; the T/C (dose: 200.0 mg/kg/injection, schedule: Q01DX009 (ip), vehicle: saline with Tween-80) is 111 % of control.
As for `Cc1ccc(NC(=O)N(CCCl)N=O)c(C)c1`, the T/C under setting [1] is 90 % of control, the T/C under setting [2] is 159 % of control and the T/C under setting [3] was 118 % of control.
Regarding `CCOC(=O)C(Cc1ccc(N(CCCl)CCCl)cc1)NC(=O)C(C)NC(C)=O` (stereo unspecified), the T/C runs as follows: (dose: 5.0 mg/kg/injection, schedule: Q04DX003 (ip), vehicle: water) 99 % of control; (dose: 10.0 mg/kg/injection, schedule: Q04DX003 (ip), vehicle: water) 99 % of control; (dose: 20.0 mg/kg/injection, schedule: Q04DX003 (ip), vehicle: water) 112 % of control; (dose: 40.0 mg/kg/injection, schedule: Q04DX003 (ip), vehicle: water) 116 % of control.
On to `CNc1ccc(C(=O)O)c(Cl)c1`, for which the T/C by setting is: (dose: 75.0 mg/kg/injection, schedule: Q04DX003 (ip), vehicle: saline) 100 % of control; (dose: 150.0 mg/kg/injection, schedule: Q04DX003 (ip), vehicle: saline) 95 % of control; (dose: 300.0 mg/kg/injection, schedule: Q04DX003 (ip), vehicle: saline) 100 % of control.
`[Mg+2]`: the T/C was 100 % of control (dose: 100.0 mg/kg/injection, schedule: Q01DX010 (ip), vehicle: saline); 100 % of control (dose: 200.0 mg/kg/injection, schedule: Q01DX010 (ip), vehicle: saline); 100 % of control (dose: 400.0 mg/kg/injection, schedule: Q01DX010 (ip), vehicle: saline).
Consider `CCOC(=O)CC1=NN=C(N)SC1`, for which, where the note is “dose: 100.0 mg/kg/injection, schedule: Q01DX009 (ip), vehicle: saline”, the T/C was 122 % of control.
Turning to `NC1CC2(CCC1=O)c1ccccc1-c1ccccc12` (stereo unspecified), the T/C was 96 % of control (dose: 25.0 mg/kg/injection, schedule: Q01DX001 (ip), vehicle: saline with Tween-80); 94 % of control (dose: 50.0 mg/kg/injection, schedule: Q01DX001 (ip), vehicle: saline with Tween-80); 97 % of control (dose: 100.0 mg/kg/injection, schedule: Q01DX001 (ip), vehicle: saline with Tween-80).
With `CCC(C)C1NC(=O)C(NC(=O)c2c3nc4c(C(=O)NC5C(=O)NC(C(C)CC)C(=O)N6CCCC6C(=O)N(C)CC(=O)N(C)C(C(C)C)C(=O)OC5C)ccc(C)c4oc-3c(C)c(=O)c2N)C(C)OC(=O)C(C(C)C)N(C)C(=O)CN(C)C(=O)C2CCCN2C1=O` (stereo unspecified) (I: TIP[Sar][NMeV] / II: TIP[Sar][NMeV]; ester I:1-I:C, II:1-II:C; linker I:N-II:N via Actinocin(1to9); configuration not given here), the T/C is, setting by setting: (dose: 0.05 mg/kg/injection, schedule: Q01DX010 (ip), vehicle: saline) 245 % of control; (dose: 0.1 mg/kg/injection, schedule: Q01DX010 (ip), vehicle: saline) 300 % of control; (dose: 0.2 mg/kg/injection, schedule: Q01DX001 (ip), vehicle: water) 162 % of control; (dose: 0.4 mg/kg/injection, schedule: Q01DX001 (ip), vehicle: water) 157 % of control; (dose: 0.8 mg/kg/injection, schedule: Q01DX001 (ip), vehicle: water) 166 % of control; (dose: 1.6 mg/kg/injection, schedule: Q01DX001 (ip), vehicle: water) 86 % of control. The T/C runs as follows: (dose: 3.1 micrograms/kg/injection, schedule: Q01DX001 (ip), vehicle: saline) 113 % of control; (dose: 3.1 micrograms/kg/injection, schedule: Q01DX010 (ip), vehicle: saline) 180 % of control; (dose: 3.1 micrograms/kg/injection, schedule: Q04DX003 (ip), vehicle: saline) 109 % of control; (dose: 6.2 micrograms/kg/injection, schedule: Q01DX010 (ip), vehicle: saline) 175 % of control; (dose: 6.3 micrograms/kg/injection, schedule: Q01DX001 (ip), vehicle: saline) 118 % of control; (dose: 6.3 micrograms/kg/injection, schedule: Q04DX003 (ip), vehicle: saline) 118 % of control. In addition, the T/C (dose: 12.5 micrograms/kg/injection, schedule: Q01DX001 (ip), vehicle: saline) was 122 % of control; the T/C (dose: 12.5 micrograms/kg/injection, schedule: Q01DX009 (ip), vehicle: water) is 170 % of control; the T/C (dose: 12.5 micrograms/kg/injection, schedule: Q01DX010 (ip), vehicle: saline) was 185 % of control; the T/C (dose: 25.0 micrograms/kg/injection, schedule: Q01DX001 (ip), vehicle: saline) was 122 % of control; the T/C (dose: 25.0 micrograms/kg/injection, schedule: Q01DX009 (ip), vehicle: water) was 189 % of control; the T/C (dose: 25.0 micrograms/kg/injection, schedule: Q01DX010 (ip), vehicle: saline) was 220 % of control. In addition, the T/C reads like this: (dose: 25.0 micrograms/kg/injection, schedule: Q04DX003 (ip), vehicle: saline) 150 % of control; (dose: 50.0 micrograms/kg/injection, schedule: Q01DX009 (ip), vehicle: water) 200 % of control; (dose: 50.0 micrograms/kg/injection, schedule: Q01DX010 (ip), vehicle: saline) 215 % of control; (dose: 50.0 micrograms/kg/injection, schedule: Q04DX003 (ip), vehicle: saline) 181 % of control; (dose: 75.0 micrograms/kg/injection, schedule: Q04DX003 (ip), vehicle: water) 162 % of control; (dose: 100.0 micrograms/kg/injection, schedule: Q01DX009 (ip), vehicle: water) 206 % of control. Besides, the T/C is, setting by setting: (dose: 100.0 micrograms/kg/injection, schedule: Q01DX010 (ip), vehicle: saline) 295 % of control; (dose: 100.0 micrograms/kg/injection, schedule: Q04DX003 (ip), vehicle: saline) 190 % of control; (dose: 150.0 micrograms/kg/injection, schedule: Q04DX003 (ip), vehicle: water) 172 % of control; (dose: 200.0 micrograms/kg/injection, schedule: Q01DX001 (ip), vehicle: saline) 177 % of control; (dose: 200.0 micrograms/kg/injection, schedule: Q01DX010 (ip), vehicle: saline) 110 % of control; (dose: 200.0 micrograms/kg/injection, schedule: Q04DX003 (ip), vehicle: saline) 200 % of control. Moreover, the T/C runs as follows: (dose: 300.0 micrograms/kg/injection, schedule: Q04DX003 (ip), vehicle: water) 209 % of control; (dose: 400.0 micrograms/kg/injection, schedule: Q01DX001 (ip), vehicle: saline) 190 % of control; (dose: 400.0 micrograms/kg/injection, schedule: Q04DX003 (ip), vehicle: saline) 231 % of control; (dose: 600.0 micrograms/kg/injection, schedule: Q04DX003 (ip), vehicle: water) 224 % of control.
